Laboratory results: US6797255B1, “Methods and compositions for enhancing magnetic resonance imaging” (Mallinckrodt Inc., priority 1985, dated 2004)

System: rabbits
Test: Tissue proton T1 and T2 relaxation times 15 min after intravenous administration (dose-response)
Type: in vivo
Settings: for T1 relaxation time / T2 relaxation time: 10 mHz RADX; for effect on hepatic and biliary T1 relaxation times: intravenous administration
Procedure: All experiments employing the complex dihydrogen bis(N-[N′-(2,6-dimethylphenyl)carbamoylmethyl]iminodiaceto)manganese (II) trihydrate were conducted following intravenous administration to rabbits. A 10 mM solution of the complex was used in these studies. Rabbits were anesthetized with ketamine/xylazine prior to treatment. The results given were obtained with a 10 mHz RADX proton spin analyzer.
Dose-response experiments were conducted on rabbits following intravenous injection of 0.01-0.10 mmol of the complex/kg. […]

[1] = 0.01-0.10 mmol/kg i.v., rabbits, 15 min
[2] = Bladder, 15 min after 0.01 mmol/kg i.v., rabbits
[3] = Bladder, 15 min after 0.03 mmol/kg i.v., rabbits
[4] = Bladder, 15 min after 0.08 mmol/kg i.v., rabbits
[5] = Bladder, 15 min after 0.10 mmol/kg i.v., 1 rabbit
[6] = Blood, 5 min, 0.01 mmol/kg i.v., rabbits
[7] = Blood, 5 min, 0.03 mmol/kg i.v., rabbits
[8] = Blood, 5 min, 0.08 mmol/kg i.v., rabbits
[9] = Blood, 5 min, 0.10 mmol/kg i.v., 1 rabbit
[10] = Blood, 10 min, 0.01 mmol/kg i.v., rabbits
[11] = Blood, 10 min, 0.03 mmol/kg i.v., rabbits
[12] = Blood, 10 min, 0.08 mmol/kg i.v., rabbits
[13] = Blood, 10 min, 0.10 mmol/kg i.v., 1 rabbit
[14] = Blood, 15 min, 0.01 mmol/kg i.v., rabbits
[15] = Blood, 15 min, 0.03 mmol/kg i.v., rabbits
[16] = Blood, 15 min, 0.08 mmol/kg i.v., rabbits
[17] = Fat, 15 min after 0.01 mmol/kg i.v., rabbits
[18] = Fat, 15 min after 0.03 mmol/kg i.v., rabbits
[19] = Fat, 15 min after 0.08 mmol/kg i.v., rabbits
[20] = Fat, 15 min after 0.10 mmol/kg i.v., 1 rabbit
[21] = Heart, 15 min after 0.01 mmol/kg i.v., rabbits
[22] = Heart, 15 min after 0.03 mmol/kg i.v., rabbits
[23] = Heart, 15 min after 0.08 mmol/kg i.v., rabbits
[24] = Heart, 15 min after 0.10 mmol/kg i.v., 1 rabbit
[25] = Large Intestine, 15 min after 0.01 mmol/kg i.v., rabbits
[26] = Large Intestine, 15 min after 0.03 mmol/kg i.v., rabbits
[27] = Large Intestine, 15 min after 0.08 mmol/kg i.v., rabbits
[28] = Large Intestine, 15 min after 0.10 mmol/kg i.v., 1 rabbit
[29] = Large Intestine, rabbits, 15 min
[30] = Liver, 15 min after 0.01 mmol/kg i.v., rabbits
[31] = Liver, 15 min after 0.03 mmol/kg i.v., rabbits
[32] = Liver, 15 min after 0.08 mmol/kg i.v., rabbits
[33] = Liver, 15 min after 0.10 mmol/kg i.v., 1 rabbit
[34] = Lung, 15 min after 0.01 mmol/kg i.v., rabbits
[35] = Lung, 15 min after 0.03 mmol/kg i.v., rabbits
[36] = Lung, 15 min after 0.08 mmol/kg i.v., rabbits
[37] = Lung, 15 min after 0.10 mmol/kg i.v., 1 rabbit
[38] = Pancreas, 15 min after 0.01 mmol/kg i.v., rabbits
[39] = Pancreas, 15 min after 0.03 mmol/kg i.v., rabbits
[40] = Pancreas, 15 min after 0.08 mmol/kg i.v., rabbits
[41] = Pancreas, 15 min after 0.10 mmol/kg i.v., 1 rabbit
[42] = Renal Cortex, 15 min after 0.01 mmol/kg i.v., rabbits
[43] = Renal Cortex, 15 min after 0.03 mmol/kg i.v., rabbits
[44] = Renal Cortex, 15 min after 0.08 mmol/kg i.v., rabbits
[45] = Renal Cortex, 15 min after 0.10 mmol/kg i.v., 1 rabbit
[46] = Renal Medulla, 15 min after 0.01 mmol/kg i.v., rabbits
[47] = Renal Medulla, 15 min after 0.03 mmol/kg i.v., rabbits
[48] = Renal Medulla, 15 min after 0.08 mmol/kg i.v., rabbits
[49] = Renal Medulla, 15 min after 0.10 mmol/kg i.v., 1 rabbit
[50] = Skeletal Muscle, 15 min after 0.01 mmol/kg i.v., rabbits
[51] = Skeletal Muscle, 15 min after 0.03 mmol/kg i.v., rabbits
[52] = Skeletal Muscle, 15 min after 0.08 mmol/kg i.v., rabbits
[53] = Skeletal Muscle, 15 min after 0.10 mmol/kg i.v., 1 rabbit
[54] = Small Intestine, 15 min after 0.01 mmol/kg i.v., rabbits
[55] = Small Intestine, 15 min after 0.03 mmol/kg i.v., rabbits
[56] = Small Intestine, 15 min after 0.08 mmol/kg i.v., rabbits
[57] = Small Intestine, 15 min after 0.10 mmol/kg i.v., 1 rabbit
[58] = Small Intestine, rabbits, 15 min
[59] = Spleen, 15 min after 0.01 mmol/kg i.v., rabbits
[60] = Spleen, 15 min after 0.03 mmol/kg i.v., rabbits
[61] = Spleen, 15 min after 0.08 mmol/kg i.v., rabbits
[62] = Spleen, 15 min after 0.10 mmol/kg i.v., 1 rabbit
[63] = Stomach, 15 min after 0.01 mmol/kg i.v., rabbits
[64] = Stomach, 15 min after 0.03 mmol/kg i.v., rabbits
[65] = Stomach, 15 min after 0.08 mmol/kg i.v., rabbits
[66] = Stomach, 15 min after 0.10 mmol/kg i.v., 1 rabbit

## Cc1cccc(C)c1NC(=O)CN(CC(=O)[O-])CC(=O)O.Cc1cccc(C)c1NC(=O)CN(CC(=O)[O-])CC(=O)O.O.O.O.[Mn+2] [Example 2]
[1]
  effect on tissue T1 relaxation times: dose-related decrease
  effect on tissue T2 relaxation times: minimally affected
[2]
  T1 relaxation time: 380 ms
  T2 relaxation time: 84 ms
[3]
  T1 relaxation time: 312 ms
  T2 relaxation time: 68 ms
[4]
  T1 relaxation time: 173 ms
  T2 relaxation time: 60 ms
[5]
  T1 relaxation time: 159 ms
  T2 relaxation time: 61 ms
Bladder, rabbits, 15 min
  Approximate ED50, intravenous dose to reduce tissue T1 by 50%: 0.060 mmol/kg
  Approximate ED50, intravenous dose to reduce tissue T2 by 50%: 0.51 mmol/kg
[6]
  T1 relaxation time: 554 ms
  T2 relaxation time: 161 ms
[7]
  T1 relaxation time: 192 ms
  T2 relaxation time: 110 ms
[8]
  T1 relaxation time: 70 ms
  T2 relaxation time: 56 ms
[9]
  T1 relaxation time: 64 ms
  T2 relaxation time: 55 ms
[10]
  T1 relaxation time: 604 ms
  T2 relaxation time: 165 ms
[11]
  T1 relaxation time: 283 ms
  T2 relaxation time: 119 ms
[12]
  T1 relaxation time: 96 ms
  T2 relaxation time: 72 ms
[13]
  T1 relaxation time: 398 ms
  T2 relaxation time: 179 ms
[14]
  T1 relaxation time: 639 ms
  T2 relaxation time: 171 ms
[15]
  T1 relaxation time: 368 ms
  T2 relaxation time: 141 ms
[16]
  T1 relaxation time: 115 ms
  T2 relaxation time: 82 ms
[17]
  T1 relaxation time: 148 ms
  T2 relaxation time: 129 ms
[18]
  T1 relaxation time: 136 ms
  T2 relaxation time: 122 ms
[19]
  T1 relaxation time: 125 ms
  T2 relaxation time: 122 ms
[20]
  T1 relaxation time: 122 ms
  T2 relaxation time: 89 ms
Fat, rabbits, 15 min
  Approximate ED50, intravenous dose to reduce tissue T1 by 50%: 11.94 mmol/kg
[21]
  T1 relaxation time: 370 ms
  T2 relaxation time: 64 ms
[22]
  T1 relaxation time: 222 ms
  T2 relaxation time: 56 ms
[23]
  T1 relaxation time: 104 ms
  T2 relaxation time: 43 ms
[24]
  T1 relaxation time: 84 ms
  T2 relaxation time: 39 ms
Heart, rabbits, 15 min
  Approximate ED50, intravenous dose to reduce tissue T1 by 50%: 0.037 mmol/kg
  Approximate ED50, intravenous dose to reduce tissue T2 by 50%: 0.38 mmol/kg
[25]
  T1 relaxation time: 245 ms
  T2 relaxation time: 65 ms
[26]
  T1 relaxation time: 155 ms
  T2 relaxation time: 52 ms
[27]
  T1 relaxation time: 123 ms
  T2 relaxation time: 43 ms
[28]
  T1 relaxation time: 166 ms
  T2 relaxation time: 53 ms
[29]
  Approximate ED50, intravenous dose to reduce tissue T1 by 50%: 0.050 mmol/kg
  Approximate ED50, intravenous dose to reduce tissue T2 by 50%: 0.19 mmol/kg
[30]
  T1 relaxation time: 92 ms
  T2 relaxation time: 41 ms
[31]
  T1 relaxation time: 49 ms
  T2 relaxation time: 25 ms
[32]
  T1 relaxation time: 28 ms
  T2 relaxation time: 18 ms
[33]
  T1 relaxation time: 143 ms
  T2 relaxation time: 87 ms
Liver, rabbits, 15 min
  Approximate ED50, intravenous dose to reduce tissue T2 by 50%: 0.04 mmol/kg
Liver, rabbits, 15 min, listed as Dihydrogen Bis(N-[N′-(2,6-dimethylphenyl)carbamoylmethyl]iminodiaceto)manganese(, Trihydrate)
  Approximate ED50, intravenous dose to reduce tissue T1 by 50%: 0.0067 mmol/kg
Liver, rabbits, 15 min, listed as dihydrogen bis(N-[N′-(2,6-dimethylphenyl)carbamoylmethyl]-iminodiaceto)manganese, Trihydrate
  Approximate ED50, intravenous dose to reduce tissue T1 by 50%: less than 0.01 mmol/kg
[34]
  T1 relaxation time: 464 ms
  T2 relaxation time: 91 ms
[35]
  T1 relaxation time: 352 ms
  T2 relaxation time: 100 ms
[36]
  T1 relaxation time: 222 ms
  T2 relaxation time: 67 ms
[37]
  T1 relaxation time: 144 ms
  T2 relaxation time: 62 ms
Lung, rabbits, 15 min
  Approximate ED50, intravenous dose to reduce tissue T1 by 50%: 0.075 mmol/kg
  Approximate ED50, intravenous dose to reduce tissue T2 by 50%: 0.15 mmol/kg
[38]
  T1 relaxation time: 225 ms
  T2 relaxation time: 66 ms
[39]
  T1 relaxation time: 104 ms
  T2 relaxation time: 118 ms
[40]
  T1 relaxation time: 101 ms
  T2 relaxation time: 70 ms
[41]
  T1 relaxation time: 149 ms
  T2 relaxation time: 69 ms
Pancreas, rabbits, 15 min
  Approximate ED50, intravenous dose to reduce tissue T1 by 50%: 0.064 mmol/kg
[42]
  T1 relaxation time: 236 ms
  T2 relaxation time: 77 ms
[43]
  T1 relaxation time: 164 ms
  T2 relaxation time: 63 ms
[44]
  T1 relaxation time: 77 ms
  T2 relaxation time: 42 ms
[45]
  T1 relaxation time: 71 ms
  T2 relaxation time: 37 ms
[46]
  T1 relaxation time: 435 ms
  T2 relaxation time: 122 ms
[47]
  T1 relaxation time: 218 ms
  T2 relaxation time: 95 ms
[48]
  T1 relaxation time: 124 ms
  T2 relaxation time: 74 ms
[49]
  T1 relaxation time: 35 ms
  T2 relaxation time: 21 ms
Renal cortex, rabbits, 15 min
  Approximate ED50, intravenous dose to reduce tissue T1 by 50%: 0.041 mmol/kg
  Approximate ED50, intravenous dose to reduce tissue T2 by 50%: 0.14 mmol/kg
Renal medulla, rabbits, 15 min
  Approximate ED50, intravenous dose to reduce tissue T1 by 50%: 0.030 mmol/kg
  Approximate ED50, intravenous dose to reduce tissue T2 by 50%: 0.90 mmol/kg
[50]
  T1 relaxation time: 364 ms
  T2 relaxation time: 35 ms
[51]
  T1 relaxation time: 304 ms
  T2 relaxation time: 38 ms
[52]
  T1 relaxation time: 255 ms
  T2 relaxation time: 39 ms
[53]
  T1 relaxation time: 205 ms
  T2 relaxation time: 38 ms
Skeletal muscle, rabbits, 15 min
  Approximate ED50, intravenous dose to reduce tissue T1 by 50%: 0.35 mmol/kg
[54]
  T1 relaxation time: 219 ms
  T2 relaxation time: 73 ms
[55]
  T1 relaxation time: 150 ms
  T2 relaxation time: 60 ms
[56]
  T1 relaxation time: 130 ms
  T2 relaxation time: 50 ms
[57]
  T1 relaxation time: 141 ms
  T2 relaxation time: 45 ms
[58]
  Approximate ED50, intravenous dose to reduce tissue T1 by 50%: 0.051 mmol/kg
  Approximate ED50, intravenous dose to reduce tissue T2 by 50%: 0.27 mmol/kg
[59]
  T1 relaxation time: 346 ms
  T2 relaxation time: 73 ms
[60]
  T1 relaxation time: 260 ms
  T2 relaxation time: 70 ms
[61]
  T1 relaxation time: 195 ms
  T2 relaxation time: 65 ms
[62]
  T1 relaxation time: 202 ms
  T2 relaxation time: 71 ms
Spleen, rabbits, 15 min
  Approximate ED50, intravenous dose to reduce tissue T1 by 50%: 0.085 mmol/kg
[63]
  T1 relaxation time: 287 ms
  T2 relaxation time: 56 ms
[64]
  T1 relaxation time: 199 ms
  T2 relaxation time: 53 ms
[65]
  T1 relaxation time: 122 ms
  T2 relaxation time: 43 ms
[66]
  T1 relaxation time: 121 ms
  T2 relaxation time: 47 ms
Stomach, rabbits, 15 min
  Approximate ED50, intravenous dose to reduce tissue T1 by 50%: 0.068 mmol/kg
  Approximate ED50, intravenous dose to reduce tissue T2 by 50%: 0.93 mmol/kg
Listed as dihydrogen bis(N-[N′-(2,6-dimethylphenyl)carbamoylmethyl]-iminodiaceto)manganese, Trihydrate
  effect on hepatic and biliary T1 relaxation times: dramatically reduced
Listed as dihydrogen bis(N-[N′-(2,6-dimethylphenyl)carbamoylmethyl]iminodiaceto)-manganese, Trihydrate
  effect on hepatic and biliary T1 relaxation times: dramatically reduces hepatic and biliary T1 relaxation times
